{"source": "paper PMC4698308", "about": "“A new amino acid substitution (Ala-205-Phe) in acetolactate synthase (ALS) confers broad spectrum resistance to ALS-inhibiting herbicides” (Planta, 2015)", "key": {"[1]": {"system": "annual bluegrass (Poa annua L.)", "test": "Whole plant confirmation of target-site resistance (visual control and dry biomass 28 days after treatment)", "type": "in vivo", "experimental": "Progeny of all POAAN-R3 plants subjected to genetic sequencing (RP1–RP8) were surface seeded into separate 10.2 × 10.2 cm greenhouse pots (Dillen Products/Myers Industries, Inc. Middlefield, OH, USA.) filled with a peat moss growing medium (ProMix BX Mycorrhizae. Premier Tech Horticulture, Quakertown, PA, USA) on 5 January 2015. The susceptible annual bluegrass population (S) included in our sequencing analysis was also seeded in the same fashion.\nAfter seeding, pots were placed inside a growth chamber (Conviron A1000. Controlled Environments Inc, Hendersonville, NC) configured to provide 14 h day at 19 °C and a 10 h night at 10 °C. Light intensity inside the chamber averaged 296 μmol m^−2 s^−1. Irrigation was applied to each pot daily using distilled water and a misting nozzle. Annual bluegrass emergence was first noted on 16 January 2015. Plants remained inside the growth chamber until 26 January 2015. On this date, seedlings of each plant (RP1–RP8, S) were transplanted into individual 164 cm^3 plastic conical containers (SC10 Super Cell Cone-tainer. Stuewe and Sons. Tangent, OR 97389) filled with Sequatchie silt loam (fine-loamy, siliceous, semiactive, thermic humic Hapludult) measuring 6.2 in soil pH and 2.1 % in organic matter content. Transplants were replicated such that 32 plastic conical containers were created for each annual bluegrass plant analyzed in previous experiments (RP1–RP8, S). Immediately after transplanting, plastic conical containers were placed in a glasshouse located at the University of Tennessee (Knoxville, TN, USA; 35.56, 83.56). Peak light intensity in this glasshouse averaged 714 μmol m^−2 s^−1 with day/night temperatures averaging 27/17 °C. Irrigation was applied daily using an overhead misting system and plants were not clipped prior to initiating this study.\nPlants were allowed to acclimate to this glasshouse environment for 10 days prior to being treated with foramsulfuron (Revolver. Bayer Environmental Sciences. Research Triangle Park, NC, USA) at 29 g ha^−1, imazamox (Clearcast. BASF Corporation. Research Triangle Park, NC) at 140 g ha^−1, or simazine (Princep 4L. Syngenta Professional Products. Greensboro, NC) at 1120 g ha^−1. Per label recommendations, imazamox and simazine treatments included a non-ionic surfactant (Activator-90. Loveland Products Inc. Greeley, CO, USA) at 0.25 % v/v. All treatments were applied in an enclosed spray chamber (Generation III track sprayer. DeVries Manufacturing, Hollandale, MN, USA) using a water carrier at 215 L ha^−1 through an 8004 EVS nozzle (TeeJet, Technologies, Spraying Systems Co., Glendale Heights, IL, USA). These herbicide treatments were selected to confirm results of genetic sequencing that RP1–RP8 were resistant to sulfonylurea, imidazolinone, and photosystem II inhibiting herbicides. A non-treated control treatment was included with each resistant (RP1–RP8) and susceptible (S) plant for comparison. Herbicides were applied on 5 February 2015 when plants were at a two-to-three leaf stage, prior to annual bluegrass tiller formation.\nAnnual bluegrass control was visually assessed on a 0 (i.e., no control) to 100 % (i.e., complete kill) scale relative to the non-treated 28 days after treatment. After all control data had been collected, aboveground biomass was harvested from each plastic conical container at the soil line using scissors, dried at 100 °C for 3 days, and weighed.\nTreatments were arranged as a 9 × 4 factorial with nine plant selections (i.e., RP1–RP8, S) and four herbicide treatments (i.e., foramsulfuron, imazamox, simazine, non-treated) in a completely randomized design with four replications and repeated in time and space during February 2015. Plants were the same age during both experimental runs."}, "[2]": {"system": "annual bluegrass (Poa annua L.)", "test": "Whole plant non-target site resistance experiment with P450 inhibitors malathion or PBO (control 21 days after treatment)", "type": "in vivo", "settings": "for Annual bluegrass control S: susceptible (S)", "experimental": "Additional experiments were conducted during March–April 2015 to determine if non-target site based mechanisms conferred resistance to ALS inhibitors in our annual bluegrass population, POAAN-R3. Plants (RP6, RP7, and S) were cultured in plastic conical containers as previously described and allowed to acclimate to the glasshouse for 18 days prior to initiating two experiments.\nIn the first experiment, resistant (RP6, RP7) and susceptible (S) plants were treated with foramsulfuron at 29 g ha^−1, trifloxysulfuron (Monument. Syngenta Professional Products. Greensboro, NC, USA) at 27.8 g ha^−1, imazaquin (Image. BASF Corporation. Research Triangle Park, NC) at 27.5 g ha^−1, or bispyribac-sodium (Velocity. Valent USA Corporation. Walnut Creek, CA, USA) at 70 g ha^−1. All herbicides were applied alone or in combination with either malathion (Spectrum Group. St. Louis, MO, USA) at 1000 g ha^−1 or piperonyl butoxide (Sigma Aldrich. St. Louis, MO, USA) at 2100 g ha^−1. Malathion and piperonyl butoxide (PBO) inhibit cytochrome P450 monooxygenases involved in metabolism of ALS inhibiting herbicides and are commonly used at the application rates tested herein to evaluate non-target site based resistance mechanisms in weeds (Burnet et al. [1994]; Christopher et al. [1992]; Yu and Powles [2014b]; Rao et al. [1995]). All herbicides were mixed in water carrier and included non-ionic surfactant at 0.25 % v/v. Malathion and PBO were mixed with methanol and de-ionized water (50:50) and applied 60 min prior to herbicide application using a previously described enclosed spray chamber on 13 February 2015.\nAnnual bluegrass control was visually assessed on a 0 (i.e., no control) to 100 % (i.e., complete kill) scale relative to the non-treated 21 days after treatment. After all control data had been collected, aboveground biomass was harvested from each plastic conical container at the soil line using scissors, dried at 100 °C, and weighed. Treatments were arranged as a 3 × 5 × 3 factorial with three plant selections (RP6, RP7, S), five herbicides (foramsulfuron, trifloxysulfuron, imazaquin, bispyribac-sodium, non-treated) and three P450 inhibitor treatments (malathion, PBO, non-treated) in a completely randomized design with four replications and repeated in separate glasshouses during February 2015."}}, "data": [{"compound": "COc1cc(OC)nc(NC(=O)NS(=O)(=O)c2cc(NC=O)ccc2C(=O)N(C)C)n1", "note": "[Foramsulfuron]", "values": [{"measurement": "annual bluegrass control, resistant plants with the exception of RP6", "setting": "[1]; 28 days after treatment, summary over RP1–RP5, RP7, RP8", "value": "≤ 11", "unit": "%"}, {"measurement": "Annual bluegrass biomass RP1", "setting": "[1]; RP1, aboveground dry biomass 28 days after treatment, foramsulfuron 29, imazamox 140, simazine 1120 g ha^-1", "value": "60 % of nontreated control"}, {"measurement": "Annual bluegrass control RP1", "setting": "[1]; RP1 plants, 28 days after treatment, 2 to 3 leaf stage, foramsulfuron 29, imazamox 140, simazine 1120 g ha^−1", "value": 8, "unit": "%"}, {"measurement": "Annual bluegrass biomass RP2", "setting": "[1]; RP2, aboveground dry biomass 28 days after treatment, foramsulfuron 29, imazamox 140, simazine 1120 g ha^-1", "value": "45 % of nontreated control"}, {"measurement": "Annual bluegrass control RP2", "setting": "[1]; RP2 plants, 28 days after treatment, 2 to 3 leaf stage, foramsulfuron 29, imazamox 140, simazine 1120 g ha^−1", "value": 11, "unit": "%"}, {"measurement": "Annual bluegrass biomass RP3", "setting": "[1]; RP3, aboveground dry biomass 28 days after treatment, foramsulfuron 29, imazamox 140, simazine 1120 g ha^-1", "value": "48 % of nontreated control"}, {"measurement": "Annual bluegrass control RP3", "setting": "[1]; RP3 plants, 28 days after treatment, 2 to 3 leaf stage, foramsulfuron 29, imazamox 140, simazine 1120 g ha^−1", "value": 11, "unit": "%"}, {"measurement": "Annual bluegrass biomass RP4", "setting": "[1]; RP4, aboveground dry biomass 28 days after treatment, foramsulfuron 29, imazamox 140, simazine 1120 g ha^-1", "value": "41 % of nontreated control"}, {"measurement": "Annual bluegrass control RP4", "setting": "[1]; RP4 plants, 28 days after treatment, 2 to 3 leaf stage, foramsulfuron 29, imazamox 140, simazine 1120 g ha^−1", "value": 5, "unit": "%"}, {"measurement": "Annual bluegrass biomass RP5", "setting": "[1]; RP5, aboveground dry biomass 28 days after treatment, foramsulfuron 29, imazamox 140, simazine 1120 g ha^-1", "value": "62 % of nontreated control"}, {"measurement": "Annual bluegrass control RP5", "setting": "[1]; RP5 plants, 28 days after treatment, 2 to 3 leaf stage, foramsulfuron 29, imazamox 140, simazine 1120 g ha^−1", "value": 10, "unit": "%"}, {"measurement": "Annual bluegrass biomass RP6", "setting": "[1]; RP6, aboveground dry biomass 28 days after treatment, foramsulfuron 29, imazamox 140, simazine 1120 g ha^-1", "value": "49 % of nontreated control"}, {"measurement": "Annual bluegrass control RP6", "setting": "[1]; RP6 plants, 28 days after treatment, 2 to 3 leaf stage, foramsulfuron 29, imazamox 140, simazine 1120 g ha^−1", "value": 24, "unit": "%"}, {"measurement": "Annual bluegrass biomass RP7", "setting": "[1]; RP7, aboveground dry biomass 28 days after treatment, foramsulfuron 29, imazamox 140, simazine 1120 g ha^-1", "value": "52 % of nontreated control"}, {"measurement": "Annual bluegrass control RP7", "setting": "[1]; RP7 plants, 28 days after treatment, 2 to 3 leaf stage, foramsulfuron 29, imazamox 140, simazine 1120 g ha^−1", "value": 10, "unit": "%"}, {"measurement": "Annual bluegrass biomass RP8", "setting": "[1]; RP8, aboveground dry biomass 28 days after treatment, foramsulfuron 29, imazamox 140, simazine 1120 g ha^-1", "value": "51 % of nontreated control"}, {"measurement": "Annual bluegrass control RP8", "setting": "[1]; RP8 plants, 28 days after treatment, 2 to 3 leaf stage, foramsulfuron 29, imazamox 140, simazine 1120 g ha^−1", "value": 5, "unit": "%"}, {"measurement": "Annual bluegrass control S", "setting": "[1]; susceptible (S) plants, 28 days after treatment, 2 to 3 leaf stage, foramsulfuron 29, imazamox 140, simazine 1120 g ha^−1", "value": 93, "unit": "%"}, {"measurement": "Annual bluegrass biomass S", "setting": "[1]; susceptible (S), aboveground dry biomass 28 days after treatment, foramsulfuron 29, imazamox 140, simazine 1120 g ha^-1", "value": "0 % of nontreated control"}, {"measurement": "Annual bluegrass control RP6", "setting": "[2]; RP6, herbicide alone, foramsulfuron 29, trifloxysulfuron 27.8, imazaquin 27.5, bispyribac-sodium 70 g ha^−1", "value": 58, "unit": "%"}, {"measurement": "Annual bluegrass control RP6", "setting": "[2]; RP6, herbicide with PBO 2100 g ha^−1 applied 60 min prior", "value": 31, "unit": "%"}, {"measurement": "Annual bluegrass control RP6", "setting": "[2]; RP6, herbicide with malathion 1000 g ha^−1 applied 60 min prior", "value": 24, "unit": "%"}, {"measurement": "Annual bluegrass control RP7", "setting": "[2]; RP7, herbicide alone, foramsulfuron 29, trifloxysulfuron 27.8, imazaquin 27.5, bispyribac-sodium 70 g ha^−1", "value": 28, "unit": "%"}, {"measurement": "Annual bluegrass control RP7", "setting": "[2]; RP7, herbicide with PBO 2100 g ha^−1 applied 60 min prior", "value": 24, "unit": "%"}, {"measurement": "Annual bluegrass control RP7", "setting": "[2]; RP7, herbicide with malathion 1000 g ha^−1 applied 60 min prior", "value": 22, "unit": "%"}, {"measurement": "Annual bluegrass control S", "setting": "[2]; herbicide alone, foramsulfuron 29, trifloxysulfuron 27.8, imazaquin 27.5, bispyribac-sodium 70 g ha^−1", "value": 91, "unit": "%"}, {"measurement": "Annual bluegrass control S", "setting": "[2]; herbicide with PBO 2100 g ha^−1 applied 60 min prior", "value": 95, "unit": "%"}, {"measurement": "Annual bluegrass control S", "setting": "[2]; herbicide with malathion 1000 g ha^−1 applied 60 min prior", "value": 96, "unit": "%"}]}]}
